Laboratory results taken from paper PMC3234597, “Two Panels of Steroid Receptor Luciferase Reporter Cell Lines for Compound Profiling” (Combinatorial Chemistry & High Throughput Screening, 2011).
Read-outs that look alike come from different tables or passages of the source.

Assays:
Type in all cases: cell-based
human ERα (full-length) = biological target: T1, human ERα (full-length) (Homo sapiens, UniProt P03372, G400V); assay: U2OS-ERα/3xERE luciferase reporter cell line (full-length receptor)
T1 sequence (P03372 1-595 G400V): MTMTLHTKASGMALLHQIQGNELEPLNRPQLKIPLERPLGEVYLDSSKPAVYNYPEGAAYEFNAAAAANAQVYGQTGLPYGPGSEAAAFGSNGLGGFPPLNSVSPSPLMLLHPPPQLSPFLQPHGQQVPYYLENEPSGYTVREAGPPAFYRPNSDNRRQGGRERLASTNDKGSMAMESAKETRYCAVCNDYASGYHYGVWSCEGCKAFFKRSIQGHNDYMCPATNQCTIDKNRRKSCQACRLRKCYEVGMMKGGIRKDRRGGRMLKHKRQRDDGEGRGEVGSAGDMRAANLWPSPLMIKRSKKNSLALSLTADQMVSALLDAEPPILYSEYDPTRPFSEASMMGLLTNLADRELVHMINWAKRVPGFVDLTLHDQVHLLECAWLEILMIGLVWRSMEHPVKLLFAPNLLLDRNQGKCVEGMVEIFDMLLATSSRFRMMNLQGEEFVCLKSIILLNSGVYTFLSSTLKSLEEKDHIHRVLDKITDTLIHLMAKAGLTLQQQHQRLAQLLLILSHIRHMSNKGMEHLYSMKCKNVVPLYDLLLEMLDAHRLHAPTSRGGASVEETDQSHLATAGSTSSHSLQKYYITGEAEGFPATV

[1] = biological target: T2, ERα^wt-LBD fused to Gal4-DBD (Homo sapiens, UniProt P03372); assay: U2OS-ERα^wt-LBD/9xGal4UAS luciferase reporter cell line
T2 construct: ERα-LBD (amino acids 303-595) based on GenBank NM_000125; expressed in transfected cells; host or cells: U2OS
T2 sequence (P03372 303-595): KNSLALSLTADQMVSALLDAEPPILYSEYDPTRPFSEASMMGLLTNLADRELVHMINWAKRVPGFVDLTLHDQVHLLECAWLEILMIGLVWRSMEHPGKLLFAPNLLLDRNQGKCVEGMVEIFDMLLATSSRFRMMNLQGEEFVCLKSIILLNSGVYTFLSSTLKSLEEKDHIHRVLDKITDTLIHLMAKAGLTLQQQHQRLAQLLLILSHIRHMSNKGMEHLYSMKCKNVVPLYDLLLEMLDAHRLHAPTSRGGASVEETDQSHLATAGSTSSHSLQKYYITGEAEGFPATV

[2] = biological target: T3, ERα^G420C-LBD fused to Gal4-DBD (Homo sapiens, UniProt P03372, G420C); assay: U2OS-ERα^G420C-LBD/9xGal4UAS luciferase reporter cell line
T3 construct: expressed in transfected cells; host or cells: U2OS
T3 sequence (P03372 311-547 G420C limits assumed): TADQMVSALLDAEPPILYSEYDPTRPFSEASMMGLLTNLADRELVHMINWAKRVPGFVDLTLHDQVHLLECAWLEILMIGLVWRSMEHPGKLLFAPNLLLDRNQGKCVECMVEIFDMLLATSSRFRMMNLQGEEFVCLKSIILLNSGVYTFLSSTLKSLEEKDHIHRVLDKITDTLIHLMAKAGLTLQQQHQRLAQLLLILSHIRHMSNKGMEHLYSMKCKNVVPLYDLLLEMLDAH

human ERβ (full-length) = biological target: T4, human ERβ (full-length) (Homo sapiens, UniProt Q92731); assay: U2OS-ERβ/3xERE luciferase reporter cell line (full-length receptor); conditions: read-out: Log EC50 (converted)
T4 construct: expression vectors encoding full-length steroid receptors: pcDNA3-hERα and pcDNA3-ERβ; expressed in transfected cells; host or cells: U2OS

[3] = biological target: T5, ERβ-LBD fused to Gal4-DBD (Homo sapiens, UniProt Q92731); assay: U2OS-ERβ-LBD/9xGal4UAS luciferase reporter cell line; conditions: read-out: Log EC50 (converted)
T5 construct: region comprising ERβ-LBD and a piece of the hinge region; expressed in transfected cells; host or cells: U2OS

human MR (full-length) = biological target: T6, human MR (full-length) (Homo sapiens, UniProt P08235); assay: U2OS-MR/MMTV luciferase reporter cell line (full-length receptor); conditions: read-out: Log EC50 (converted)
T6 construct: expression vectors encoding full-length steroid receptors: pcDNA3-hAR, pcDNA3-hGR and pcDNA3-hMR; expressed in transfected cells; host or cells: U2OS
T6 sequence (P08235 1-984): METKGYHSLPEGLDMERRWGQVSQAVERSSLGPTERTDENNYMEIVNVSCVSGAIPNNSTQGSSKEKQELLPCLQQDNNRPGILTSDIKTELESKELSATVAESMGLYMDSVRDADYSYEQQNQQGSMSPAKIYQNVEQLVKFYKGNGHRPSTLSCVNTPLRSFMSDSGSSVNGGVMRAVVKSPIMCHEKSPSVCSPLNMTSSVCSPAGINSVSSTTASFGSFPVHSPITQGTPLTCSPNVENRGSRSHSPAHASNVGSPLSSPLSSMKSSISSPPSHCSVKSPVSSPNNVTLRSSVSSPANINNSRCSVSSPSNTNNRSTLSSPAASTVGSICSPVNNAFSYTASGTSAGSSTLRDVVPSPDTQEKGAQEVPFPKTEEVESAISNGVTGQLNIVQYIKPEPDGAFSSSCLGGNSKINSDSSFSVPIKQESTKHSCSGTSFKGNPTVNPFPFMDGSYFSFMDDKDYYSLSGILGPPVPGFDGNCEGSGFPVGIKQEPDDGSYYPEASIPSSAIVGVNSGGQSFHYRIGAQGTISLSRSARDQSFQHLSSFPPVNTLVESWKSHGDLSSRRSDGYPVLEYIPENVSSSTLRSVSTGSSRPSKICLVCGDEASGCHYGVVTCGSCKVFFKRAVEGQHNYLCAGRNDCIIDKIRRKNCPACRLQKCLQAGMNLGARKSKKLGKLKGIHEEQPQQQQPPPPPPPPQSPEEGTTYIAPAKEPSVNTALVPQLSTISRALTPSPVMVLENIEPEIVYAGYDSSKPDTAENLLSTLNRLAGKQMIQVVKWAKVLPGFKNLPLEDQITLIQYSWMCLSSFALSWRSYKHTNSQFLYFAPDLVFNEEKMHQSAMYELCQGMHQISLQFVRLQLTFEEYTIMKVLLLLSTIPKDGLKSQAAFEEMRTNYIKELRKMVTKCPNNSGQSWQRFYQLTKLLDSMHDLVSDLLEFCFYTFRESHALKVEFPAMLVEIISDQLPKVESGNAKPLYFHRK

MR-LBD fused to Gal4-DBD = biological target: T7, MR-LBD fused to Gal4-DBD (Homo sapiens, UniProt P08235); assay: U2OS-MR-LBD/9xGal4UAS luciferase reporter cell line; conditions: read-out: Log EC50 (converted)
T7 construct: MR-LBD was cloned by RT-PCR from total RNA isolated from HEK293 cells; expressed in transfected cells; host or cells: U2OS
T7 sequence (P08235 726-964 limits assumed): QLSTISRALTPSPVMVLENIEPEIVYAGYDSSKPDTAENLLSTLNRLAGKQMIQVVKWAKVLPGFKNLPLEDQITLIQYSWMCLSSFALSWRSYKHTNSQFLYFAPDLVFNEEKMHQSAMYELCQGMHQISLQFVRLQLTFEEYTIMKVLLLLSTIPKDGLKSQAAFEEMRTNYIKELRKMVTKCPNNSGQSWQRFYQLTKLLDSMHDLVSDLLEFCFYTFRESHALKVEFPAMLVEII

PR-LBD fused to Gal4-DBD = biological target: T8, PR-LBD fused to Gal4-DBD (Homo sapiens, UniProt P06401); assay: U2OS-PR-LBD/9xGal4UAS luciferase reporter cell line
T8 construct: PR-LBD region was PCR amplified using the following primer combination; host or cells: U2OS
T8 sequence (P06401 679-913 limits assumed): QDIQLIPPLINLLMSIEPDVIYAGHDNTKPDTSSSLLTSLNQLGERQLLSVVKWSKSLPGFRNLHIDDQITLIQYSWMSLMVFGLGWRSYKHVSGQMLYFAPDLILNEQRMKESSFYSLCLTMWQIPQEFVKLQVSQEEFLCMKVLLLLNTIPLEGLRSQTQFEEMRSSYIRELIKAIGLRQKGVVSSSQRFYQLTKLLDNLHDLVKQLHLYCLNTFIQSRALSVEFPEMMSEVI

human GR (full-length) [4] = biological target: T9, human GR (full-length) (Homo sapiens, UniProt P04150); assay: U2OS-GR/3xGRE luciferase reporter cell line (full-length receptor)
T9 construct: expression vectors encoding full-length steroid receptors: pcDNA3-hAR and pcDNA3-hGR; host or cells: U2OS
T9 sequence (P04150 1-777): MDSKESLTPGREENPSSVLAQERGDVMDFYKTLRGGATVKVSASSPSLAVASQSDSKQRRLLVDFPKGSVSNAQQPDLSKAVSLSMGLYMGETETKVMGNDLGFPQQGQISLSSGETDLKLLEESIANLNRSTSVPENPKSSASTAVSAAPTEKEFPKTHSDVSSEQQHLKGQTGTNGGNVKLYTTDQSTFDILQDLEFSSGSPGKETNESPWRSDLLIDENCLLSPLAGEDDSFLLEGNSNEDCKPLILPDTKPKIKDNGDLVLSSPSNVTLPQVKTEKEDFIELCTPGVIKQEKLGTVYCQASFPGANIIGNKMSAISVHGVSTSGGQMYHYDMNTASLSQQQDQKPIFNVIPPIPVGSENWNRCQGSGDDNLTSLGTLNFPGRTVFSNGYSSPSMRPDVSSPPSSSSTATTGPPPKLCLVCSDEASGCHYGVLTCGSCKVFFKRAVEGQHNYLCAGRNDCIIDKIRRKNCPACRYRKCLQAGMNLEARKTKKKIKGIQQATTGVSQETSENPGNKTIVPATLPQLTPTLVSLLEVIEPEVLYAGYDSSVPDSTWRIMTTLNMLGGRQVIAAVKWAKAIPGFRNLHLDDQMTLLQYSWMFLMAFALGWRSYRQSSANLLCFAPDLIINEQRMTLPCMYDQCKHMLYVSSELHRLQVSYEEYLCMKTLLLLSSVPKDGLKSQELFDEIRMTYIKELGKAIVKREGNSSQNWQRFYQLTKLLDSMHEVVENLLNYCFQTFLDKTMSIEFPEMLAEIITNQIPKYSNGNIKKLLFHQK

human GR (full-length) [5] = biological target: T9, human GR (full-length); assay: U2OS-GR/MMTV luciferase reporter cell line (full-length receptor)
GR-LBD fused to Gal4-DBD = biological target: T10, GR-LBD fused to Gal4-DBD (Homo sapiens, UniProt P04150); assay: U2OS-GR-LBD/9xGal4UAS luciferase reporter cell line
T10 construct: expressed in transfected cells; host or cells: U2OS
T10 sequence (P04150 524-758 limits assumed): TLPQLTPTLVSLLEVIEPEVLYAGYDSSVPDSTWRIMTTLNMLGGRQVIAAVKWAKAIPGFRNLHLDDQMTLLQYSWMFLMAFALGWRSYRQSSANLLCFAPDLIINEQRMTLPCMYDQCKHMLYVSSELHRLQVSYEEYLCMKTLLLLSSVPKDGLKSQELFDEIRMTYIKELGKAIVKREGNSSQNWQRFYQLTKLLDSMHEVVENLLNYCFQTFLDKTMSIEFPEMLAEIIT

T5 sequence (Q92731 264-498 limits assumed): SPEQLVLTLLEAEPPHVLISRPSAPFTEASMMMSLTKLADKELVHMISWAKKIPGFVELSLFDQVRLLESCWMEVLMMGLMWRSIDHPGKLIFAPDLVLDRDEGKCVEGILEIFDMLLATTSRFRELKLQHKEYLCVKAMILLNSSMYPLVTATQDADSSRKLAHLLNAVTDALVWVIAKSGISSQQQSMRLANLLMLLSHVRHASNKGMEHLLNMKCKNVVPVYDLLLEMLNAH
T4 sequence (Q92731 whole entry): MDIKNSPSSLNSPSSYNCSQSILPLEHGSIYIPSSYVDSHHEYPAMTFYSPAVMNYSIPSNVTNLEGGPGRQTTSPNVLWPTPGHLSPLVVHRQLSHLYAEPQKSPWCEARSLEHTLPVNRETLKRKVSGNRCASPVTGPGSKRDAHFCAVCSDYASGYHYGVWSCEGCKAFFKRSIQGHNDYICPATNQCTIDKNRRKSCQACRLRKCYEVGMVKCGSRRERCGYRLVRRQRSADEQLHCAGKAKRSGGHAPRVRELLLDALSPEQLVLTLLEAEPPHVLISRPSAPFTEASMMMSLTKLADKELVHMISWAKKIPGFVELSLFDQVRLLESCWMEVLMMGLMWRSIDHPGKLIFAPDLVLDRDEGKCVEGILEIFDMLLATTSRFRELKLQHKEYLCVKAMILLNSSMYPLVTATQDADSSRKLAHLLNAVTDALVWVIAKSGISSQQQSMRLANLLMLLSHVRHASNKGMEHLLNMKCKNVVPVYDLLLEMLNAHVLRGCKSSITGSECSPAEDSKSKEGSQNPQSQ

CC(C)C(=O)Nc1ccc([N+](=O)[O-])c(C(F)(F)F)c1 [Flutamide, flutamide]
> 10 µM: EC50 (human ERα (full-length)) | EC50 [1] | EC50 [2] | EC50 (human ERβ (full-length)) | EC50 [3] | EC50 (human MR (full-length)) | EC50 (MR-LBD fused to Gal4-DBD) | IC50 (PR-LBD fused to Gal4-DBD; antagonist mode, PR-LBD/9xGal4UAS, log10 of molar IC50, mean ± SEM, read-out: Log IC50 (converted)) | EC50 (PR-LBD fused to Gal4-DBD; read-out: Log EC50 (converted))

CC(=O)S[C@@H]1CC2=CC(=O)CC[C@]2(C)[C@H]2CC[C@@]3(C)[C@@H](CC[C@@]34CCC(=O)O4)[C@H]12 [Spironolactone, spironolactone]
> 10 µM: EC50 (human ERα (full-length); Log EC50, agonist mode, ERα/3xERE, 20 h, value is log10 of molar EC50, mean ± SEM) | EC50 [1] | EC50 [2] | EC50 (human GR (full-length) [4]) | EC50 (human GR (full-length) [5]) | EC50 (GR-LBD fused to Gal4-DBD)
